Test results reported in patent US20220011296A1, “DETERMINING TREATMENT RESPONSE IN SINGLE CELLS” (Dana-Farber Cancer Institute, Inc., priority 2018, published 2022).
Entries after “also recorded” stand apart in the source; their conditions may differ.

Experiments:
Format in all cases: cell-based, human
[1] = test system: Breast Met cells; assay: Sample viability (Live/Dead), breast metastasis; details: 3 days, vehicle 35%
Method: (§1) Primary Sample Handling. The six primary samples underwent the same protocol with regards to disassociation, recovery, and drugging; however, the exact timeline of each tissue varied slightly based on the amount of tissue and drug used (Table 1, below). After at least [culture time] in culture (with the exception of CNS lymphoma which was cultured for 24 hours), persistent red blood cells were removed with RBC lysis buffer (00-433-57, Thermo Fisher Scientific). The remaining cells were then dissociated with Accutase (A6964, Sigma-Aldrich) and further purified via demyelination (130-096-733, Miltenyi Biotec) with MS separation columns (130-042-201, Miltenyi Biotec), or debris removal (130-109-398, Miltenyi Biotec). The purified cells were plated in 6 or 24 well plates and allowed to recover in the well plate for [recovery time] before addition of the drug. After [drug duration] days, the samples were prepared for sSMR for drug response measurements by dissociation into a single-cell suspension using Accutase and gentle pipetting. Cells were resuspended at a concentration of 100,000 cells/mL in Neurocult NS-A (as prepared above) with the same concentration of drug or DMSO as their respective culture. Measurements for sample viability were determined (Table 2, below).

[2] = test system: Recurrent Glioblastoma cells; assay: Sample viability (Live/Dead), recurrent glioblastoma; details: 1 μM Abema, 3 days; vehicle 67%
Method: as §1

[3] = test system: metastatic non-small-cell lung cancer cells (BT1443); assay: sSMR buoyant mass and MAR measurement, lung metastasis (BT1443); details: carboplatin 100 μM, 72 h
Method: Patient-derived cells from six different types of brain tissues were assessed for drug sensitivity in the sSMR: non-tumor brain tissue from epilepsy surgery, glioblastoma, recurrent glioblastoma, breast metastasis, lung metastasis, and primary CNS lymphoma. Resected samples obtained with patient consent to research (Brigham and Women's Hospital, DF/HCC IRB-approved consent protocol 10-417) were enzymatically and physically dissociated using the Brain Tumor Dissociation Kit P (130-095-942, Miltenyi Biotec) and gentleMACS Dissociator (130-093-235, Miltenyi Biotec). […]
Primary Sample Handling. […] Measurements for sample viability were determined (Table 2, below).
Measurements were obtained from […] types of primary patient sample types, including: non-tumor brain tissue resected for a non-tumor condition (FIGS. 5A-5B, Table 6) (n=1); primary glioblastoma (FIGS. 5C-5D, Table 7) and recurrent glioblastoma (FIGS. 5E-5F, Table 8) (n=2); metastatic breast adenocarcinoma (FIGS. 5G-5H, Table 9) (n=1); metastatic non-small-cell lung cancer (FIGS. 5I-5J, Table 10) (n=1); and primary central nervous system (CNS) lymphoma (FIGS. 5K-5L, Table 11) (n=1). […] Overall, mass and MAR were measured for 1092 cells with an average of 84 cells measured per condition over 13 conditions tested (FIGS. 1B-1C). […]

[4] = test system: Lung Met cells; assay: Sample viability (Live/Dead), lung metastasis; details: 100 μM Carbo, 3 days; vehicle 80%
Method: as §1

[5] = test system: CNS Lymphoma cells; assay: Sample viability (Live/Dead), CNS lymphoma; details: 10 nM Ibrutinib, 2 days; vehicle 74%
Method: as §1

[6] = test system: Normal brain cells; assay: Sample viability (Live/Dead), normal brain; details: 250 μM TMZ, 3 days; vehicle 35%
Method: as §1

[7] = test system: Glioblastoma cells; assay: Sample viability (Live/Dead), glioblastoma; details: 250 μM TMZ, 8 days; vehicle 73%
Method: as §1

[8] = test system: glioblastoma multiforme (GBM) patient-derived cell lines (PDCLs); assay: Single cell mass / MAR assay in patient-derived cell lines; details: TMZ compared with DMSO, heterogeneous cohort of PDCLs, FIG. 7A
Method: A single cell protocol for monitoring the mass accumulation rate (MAR) in response to chemotherapy (FIGS. 6A-6F). After tumor resection, the tissue is dissociated into single cells (FIG. 6A). The single cells from the dissociated tumor is measured within a week of resection using the mass/MAR of the single cells in response to chemotherapeutic agents (FIG. 6C). In addition to acute sensitivity testing, dissociated tumor cells from patient samples can also be grown long-term into robust cell lines (e.g., patient-derived cell lines, PDCLs), where high throughput experiments can be performed and analyzed relative to a more complete genomic background of the tissue (FIG. 6D). Because this assay is high throughput, the MAR can be measured with more conditions relative to acute patient samples. These PDCLs can be implanted in vivo to allow MAR measurements to be taken ex vivo from treated animals (e.g., mice). Metabolic readouts (e.g., CellTiter-Glo, CTG) and spheroid area analysis (e.g., IncuCyte) were conducted in parallel to the novel single cell MAR assays described herein (FIG. 6E).
Single cell MAR experiments were conducted in both PDCLs and acute patient models (FIGS. 7A-7D). […] The single cell MAR assay detected changes within 24 hours after treatment with a chemotherapeutic (TMZ) compared with DMSO (FIG. 7A).

CCN1CCN(Cc2ccc(Nc3ncc(F)c(-c4cc(F)c5nc(C)n(C(C)C)c5c4)n3)nc2)CC1 [Abemaciclib]
Drug 2 Viability (Live/Dead) ([1]; 100 nM Abema): 35%
Drug 1 Viability (Live/Dead) [2]: 59%

N.N.O=C([O-])C1(C(=O)[O-])CCC1.[Pt+2] [Carboplatin]
Mass-normalized MAR vs vehicle (in words) [3]: significantly reduced; also recorded: Statistically significant reductions
Drug 1 Viability (Live/Dead) [4]: 74%

C=CC(=O)N1CCC[C@@H](n2nc(-c3ccc(Oc4ccccc4)cc3)c3c(N)ncnc32)C1 [Ibrutinib]
Drug 1 Viability (Live/Dead) [5]: 65%

CO[C@H]1C[C@@H]2CC[C@@H](C)[C@@](O)(O2)C(=O)C(=O)N2CCCC[C@H]2C(=O)O[C@H]([C@H](C)C[C@@H]2CC[C@@H](OCCO)[C@H](OC)C2)CC(=O)[C@H](C)/C=C(\C)[C@@H](O)[C@@H](OC)C(=O)[C@H](C)C[C@H](C)/C=C/C=C/C=C/1C [RAD001, everolimus]
Drug 1 Viability (Live/Dead) ([1]; 1 nM RAD): 32%

Cn1nnc2c(C(N)=O)ncn2c1=O [TMZ, Temozolomide]
Drug 1 Viability (Live/Dead) [6]: 30%
Drug 1 Viability (Live/Dead) [7]: 69%
time after treatment at which single cell MAR changes were detected [8]: ≤ 24 h
